Like-named read-outs stand apart in the source and are kept apart here.
Columns and labels:
[1] = Cyclic voltammetry (CV) in three-electrode cells; type: physicochemical; details: for peak-to-peak potential difference (ΔEp): maintained for 100 CV cycles; for anodic-to-cathodic peak current ratio (Ipa/Ipc): preserved during 100 CV cycles; for Peak to peak potential difference (ΔEp) / Ratio of anodic peak current (Ipa) to cathodic peak current (Ipc) (Ipa/Ipc) @50 mV s^−1: 1st event (or only value)
Procedure: All electrochemical examinations were carried out using a Biologic VMP3 electrochemical workstation in an Ar-filled glove box (MOTek, negligible O2 and H2O, tested by the ketyl solution).
Cyclic voltammetry (CV) was conducted in three-electrode cells comprised of glassy carbon (GC; diameter (d)=3 mm) as the working electrode (WE), a platinum wire as the counter electrode (CE), and a leak-free Ag/AgCl as the reference electrode (RE). The GC electrodes were polished using alumina slurry before testing (ALS Co., Ltd).
After CV analysis, ferrocene (Fc, ferrocene, 98%, Sigma-Aldrich) was added to the cell to measure its redox potential, and the measured sample potential was converted to the Fc/Fc^+.

[2] = Rotating disk electrode LSV, diffusion coefficient (Levich equation); type: physicochemical; details: for diffusion coefficient (D): 0.1 M TBATFSI/MeCN
Procedure: To measure diffusion coefficient (D), rotating disk electrode (RDE; ALS Co., Ltd) measurements were conducted with the same three-electrode cells. […] Limited mass-transport provides a current plateau (iL) of redox processes, which is linearly proportional to the square root of the rotating rates (ω^1/2). The diffusion coefficient (D) was calculated by plotting IL as a function of ω^1/2 and through the Levich equation (equation S1). iL=0.620nFAD^2/3ω^1/2η^−1/6Co (equation S1)
where IL is the limiting current (A cm^−2), n is the number of electrons transferred during the redox reaction, F is the Faraday's constant (96485 C mol^−1), A is the area of the electrode (0.0707 cm^2), D is the diffusion coefficient (cm^2 […]), ω is the angular rotation rate (rad s^−1), η is the kinematic viscosity (0.00442 cm^2 s^−1, referred to 0.1 M TBAPF6/MeCN), and Co is the concentration of the sample chemical.

[3] = Electron-transfer rate from CV curves (Nicholson method); type: physicochemical; details: for electron-transfer constant (k^o): 0.1 M TBATFSI/MeCN
Procedure: The electron-transfer rate (k^0) was calculated from CV curves and using the Nicholson method(equation S2).
where k^o is the electron-transfer constant (cm/s), D is the diffusion coefficient estimated from the above RDE studies, R is the gas constant (8.314 J K^−1 mol^−1), T is the temperature (298 K), v is the scan rate of the CVs (mV s^−1).
The Ψ value was obtained by Kingler and Kochi relation (equation S3).
where ΔEp is the peak-to-peak potential for the corresponding reduction or oxidation event.

[4] = Radical stability, UV-Vis time-dependent concentration decay; type: physicochemical; details: for time-dependent concentration decay of the radical: in 0.5 M TBATFSI/MeCN
Source text: FIG. 10—Radical stability of TMAP-BTP^·+ and BTP^·. (a-b) UV-Vis spectra of (a) TMAP-BTP^·+ and (b) BTP^· in 0.5 M TBATFSI/MeCN. (c-d) Calculated time-dependent concentration decay of (c) TMAP-BTP^·+ (0.22%/day) and (d) BTP (0.63%/day). Better stability of TMAP-BTP^·+ than BTP^· is presumably attributed to the cationic TMAP groups, which repel the redox molecules and prevent chemical reactions.

[5] = expected from the permeability
[6] = Solubility test (UV-vis calibration curves, maximum solubility); details: organic solvent or mixture, thermodynamic from solid
[7] = 1st event (single value for BTMAP-Fc), after 100 cycles (in parentheses)
[8] = 1st event (single value for BTMAP-Fc), initial
[9] = 1st redox event (single value for BTMAP-Fc), 4 mM in 0.1 M TBATFSI/MeCN
[10] = first redox event (single event for BTMAP-Fc), CV, 4 mM in 0.1 M TBATFSI/MeCN
[11] = c1, first cathodic event (single value for BTMAP-Fc, oxidation process)
[12] = 2nd event, after 100 cycles (in parentheses)
[13] = 2nd redox event, 4 mM in 0.1 M TBATFSI/MeCN
[14] = second redox event, CV, 4 mM in 0.1 M TBATFSI/MeCN
[15] = 0.5 M TBATFSI in MeCN, Solubility 0.5M TBATFSI/MeCN (M), electrolyte solution 0.5M TBATFSI/MeCN
[16] = 0.5 M TBATFSI in MeCN, maximum solubility in electrolyte solution, 0.5 M TBATFSI/MeCN
[17] = MeCN, Solubility MeCN (M), in MeCN
[18] = after 100 cycles (in parentheses)
[19] = initial, 10 mM in 0.1 M TBABF4/MeCN

SMILES | Ipa/Ipc @50 mV s^−1 [1, 7] | ΔEp [1, 7] | Ipa/Ipc @50 mV s^−1 [1, 8] | ΔEp [1, 8] | E^o′ [1, 9] | Formal potential (E^o′) [1, 10] | peak-to-peak potential difference (ΔEp) [1] | anodic-to-cathodic peak current ratio (Ipa/Ipc) [1] | diffusion coefficient (D) [2] | D (diffusion coefficient) [2, 11] | electron-transfer constant (k^o) [3] | k^o (electron-transfer constant) [3, 11] | time-dependent concentration decay of the radical [4] | time required for 10% decay associated with the crossover [5] | Ipa/Ipc @50 mV s^−1 [1, 12] | ΔEp [1, 12] | Ipa/Ipc @50 mV s^−1 ([1]; 2nd event, initial) | ΔEp ([1]; 2nd event, initial) | E^o′ [1, 13] | Formal potential (E^o′) [1, 14] | further results
C[N+](C)(C)CCC[c-]1cccc1.C[N+](C)(C)CCC[c-]1cccc1.O=S(=O)([N-]S(=O)(=O)C(F)(F)F)C(F)(F)F.O=S(=O)([N-]S(=O)(=O)C(F)(F)F)C(F)(F)F.[Fe+2] [BTMAP-Fc·2TFSI^−, 1,1′-bis[3-(trimethylammonio)propyl]ferrocene dibis-trifluoromethanesulfonimidate, reference compound] | 1.03 (1.03) | 149 (149) mV | 1.03 (1.03) | 149 (149) mV | −0.03 V vs. Fc/Fc^+ | −0.03 V vs. Fc/Fc^+ | ~150 mV | about 1 | 2.0×10^−6 cm^2 s^−1 | 2.00 X10^−6 cm^2 s^−1 | 0.034 cm/s | 0.034 cm/s |  |  |  |  |  |  |  |  | 
C[n+]1ccc(-c2nc3ccccc3s2)cc1 [BTP^+] |  |  |  |  |  |  |  |  |  |  |  |  | 0.63 %/day | 0.047 year |  |  |  |  |  |  | cyclability in the CV profile ([1]; 100 CV cycles, FIGS. 6 and 7): excellent cyclability; time required for 10% decay associated with the crossover ([5]; listed as BTP^·): 0.0065 year
C[n+]1ccc(-c2nc3ccccc3s2)cc1 [BTP^+·TFSI^−, 4-(benzo[d]thiazol-2-yl)-1-methylpyridin-1-ium bistriflimide] | (0.99) | 1st = 99 (99) mV | 1st = 1.01 | 1st = 99 (99) mV | 1st = −1.21 V vs. Fc/Fc^+ | −1.21 V vs. Fc/Fc^+ | ~99 mV | 1.01 |  | c1 = 3.71 X10^−6 cm^2 s^−1 |  | c1 = 0.086 cm s^−1 |  |  | (0.87) | 84 mV | 2nd = 0.95 | 93 mV | 2nd = −1.90 V vs. Fc/Fc^+ | −1.90 V vs. Fc/Fc^+ | D (diffusion coefficient) ([2]; c2, second cathodic event): c2 = 3.32 X10^−6 cm^2 s^−1; k^o (electron-transfer constant) ([3]; c2, second cathodic event): c2 = 0.090 cm s^−1; solubility [6, 15]: 0.47 M; solubility [6, 16]: 0.47 M; solubility [6, 17]: 1 M
COCC[n+]1ccc(-c2nc3ccccc3s2)cc1 [MOE-BTP^+·BF4^−, 4-(benzo[d]thiazol-2-yl)-1-(2-methoxyethyl)pyridin-1-ium tetrafluoroborate] |  |  |  |  |  |  |  |  |  |  |  |  |  |  |  |  |  |  |  |  | Peak to peak potential difference (ΔEp) [1, 18]: 107 mV; Ratio of anodic peak current (Ipa) to cathodic peak current (Ipc) (Ipa/Ipc) @50 mV s^−1 [1, 18]: 0.98; Peak to peak potential difference (ΔEp) [1, 19]: 104 mV; Ratio of anodic peak current (Ipa) to cathodic peak current (Ipc) (Ipa/Ipc) @50 mV s^−1 [1, 19]: 1.00; Formal potential (E^o′) ([1]; 1st redox event (or the only value given), 10 mM in 0.1 M TBABF4/MeCN): 1st = −1.24 V vs. Fc/Fc^+; Formal potential (E^o′) ([1]; 2nd redox event, 10 mM in 0.1 M TBABF4/MeCN): 2nd = −1.97 V vs. Fc/Fc^+; potential shift after CV cycles ([1]; FIG. 7): positive (+) potential shift; solubility ([6]; MeCN, Solubility (M) in MeCN, in MeCN): 0.1 M
C[N+](C)(C)CCC[n+]1ccc(-c2nc3ccccc3s2)cc1 [TMAP-BTP^2+] |  |  |  |  |  | −1.19 V vs. Fc/Fc^+ | 105 mV | close to unity | 1.91×10^−6 cm^2 s^−1 |  | ~0.1 cm/s |  | 0.22 %/day | 0.37 year |  |  |  |  |  | −1.87 V vs. Fc/Fc^+ | time the reduced form remained stable in the electrolyte solution ([4]; electrolyte solution): 4 days; time required for 10% decay associated with the crossover ([5]; listed as TMAP-BTP^·+): 0.094 year
C[N+](C)(C)CCC[n+]1ccc(-c2nc3ccccc3s2)cc1 [TMAP-BTP^2+·2TFSI^−, 4-(benzo[d]thiazol-2-yl)-1-(3-(trimethylammonio)propyl)pyridin-1-ium bistriflimide] | (0.97) | (105) mV | 1st = 0.97 | 1st = 105 mV | 1st = −1.19 V vs. Fc/Fc^+ |  |  |  |  | c1 = 1.91 X10^−6 cm^2 s^−1 |  | c1 = 0.114 cm s^−1 |  |  | (1.18) | (85) mV | 2nd = 1.08 | 2nd = 94 mV | 2nd = −1.87 V vs. Fc/Fc^+ |  | D (diffusion coefficient) ([2]; c2, second cathodic event): c2 = 1.91 X10^−6 cm^2 s^−1; k^o (electron-transfer constant) ([3]; c2, second cathodic event): c2 = 0.124 cm s^−1; solubility [6, 15]: 0.34 M; solubility [6, 16]: 0.34 M; solubility [6, 17]: 0.89 M

— patent US12643893B2, “Heteroaryl-pyridinium compound and redox flow battery comprising the same” (Korea Advanced Institute of Science and Technology, priority 2021, dated 2026)
